Laboratory results published in patent publication US6617126B1, “Method for improving the growth and colorimetric detection of bacteria, yeasts, fungi or cocci” (priority 1996, dated 2003).
Values after ≈ are worked out from the molar mass of the structure shown. Like-named read-outs stand apart in the source and are kept apart here.

Columns and labels:
[1] = tested on: Mycobacterium tuberculosis; assay: microbe, parasite or virus in culture
[2] = tested on: Mycobacterium tuberculosis
[3] = H37RV, read-out: MIC (minimum inhibiting concentration), strain M.tb. H37 Rv
[4] = read-out: MIC (minimum inhibiting concentration), strain Clin. M.tb 1
[5] = read-out: MIC (minimum inhibiting concentration), strain Clin. M.tb 15

SMILES | MIC [1, 3] | MIC [1, 4] | MIC [1, 5] | MIC (minimum inhibiting concentration) ([2]; strain Clin. M.tb 1) | MIC (minimum inhibiting concentration) ([2]; strain Clin. M.tb 15) | MIC (minimum inhibiting concentration) ([2]; strain M.tb. H37 Rv)
CC[C@@H](CO)NCCN[C@@H](CC)CO [Ethambutol (EMB), Ethambutol] | 0.5 µg/mL (≈ 2.45 µM) | 0.25 µg/mL (≈ 1.22 µM) | 0.5 µg/mL (≈ 2.45 µM) | – | – | –
NNC(=O)c1ccncc1 [Isoniacid (INA), Isoniacid] | – | – | – | 0.03 µg/mL (≈ 0.219 µM) | 0.03 µg/mL (≈ 0.219 µM) | 0.06 µg/mL (≈ 0.438 µM)
CO[C@H]1/C=C/O[C@@]2(C)Oc3c(C)c(O)c4c(O)c(c(/C=N/N5CCN(C)CC5)c(O)c4c3C2=O)NC(=O)/C(C)=C\C=C\[C@H](C)[C@H](O)[C@@H](C)[C@@H](O)[C@@H](C)[C@H](OC(C)=O)[C@@H]1C [Rifampicin (RMP), Rifampicin] | 2 µg/mL (≈ 2.43 µM) | 1 µg/mL (≈ 1.22 µM) | 2 µg/mL (≈ 2.43 µM) | – | – | –
